Assay results reported in the supplement of paper PMC10307832.

Each cell line was assayed with O=C1NC(=O)[C@@H](c2cn3c4c(cccc24)CCC3)[C@@H]1c1c[nH]c2ccccc12 [Tivantinib] + NC(=O)Nc1cc(-c2cccc(F)c2)sc1C(=O)N[C@H]1CCCNC1 [AZD7762] (partner 0.2 µM) (assay: relative viability (nuclei count vs DMSO), 5 days (fraction); higher = more cells survive). Details: first compound 0.3162 µM.
Procedure, shortened: (§1)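 Relative viability equals treated-well nuclei counts divided by vehicle-well nuclei counts. Counts came from 4× images of lung cancer cell lines grown in 1536-well plates for 5 days after pin-tool dosing on the day after seeding. Dosing used one drug alone or a fixed anchor-drug dose plus five library-drug doses (not always all listed) in √10 steps, and values are medians of duplicate plates.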

Cell Line	relative viability
LK-2	0.363
NCI-H2126	1.04
NCI-H2342	0.39
HARA	0.288
LC-2-ad	0.758
LU99A	0.278
ChaGo-K-1	0.861
NCI-H3122	0.923
HCC-78	0.425
SW 900	0.496
LXF-289	1.08
BEN	0.581
NCI-H1648	0.479
CAL-12T	0.437

Each cell line was assayed with O=C1NC(=O)[C@@H](c2cn3c4c(cccc24)CCC3)[C@@H]1c1c[nH]c2ccccc12 [Tivantinib] + Nc1ncn([C@H]2C[C@H](O)[C@@H](CO)O2)c(=O)n1 [Decitabine] (partner 2 µM) in the same assay as above. Details: first compound 0.01 µM.
Procedure, shortened: as §1

Cell Line	relative viability
NCI-H522	0.715
NCI-H838	0.446
NCI-H1651	0.592
NCI-H1734	0.532
NCI-H2009	0.361
EPLC-272H	0.389
PC-14	0.238
LCLC-97TM1	0.232
NCI-H596	1.12
EMC-BAC-2	1.03
NCI-H2087	0.326
HCC-44	0.988
NCI-H647	0.437
LK-2	0.233
NCI-H2126	0.57
NCI-H2342	0.845
SK-MES-1	0.299
HARA	0.457

Cell Line	relative viability
COR-L23	0.496
COR-L 105	0.641
LC-2-ad	0.858
LU99A	0.869
ChaGo-K-1	0.541
NCI-H2170	0.47
NCI-H3122	0.434
HCC-78	0.707
A549	0.246
SW 900	0.461
LXF-289	0.37
BEN	0.755
NCI-H2023	0.24
NCI-H520	0.462
SW 1573	0.688
NCI-H1650	0.406
SK-LU-1	0.711
NCI-H661	0.565

Same assay, conditions: first compound 0.03162 µM

Cell Line	relative viability
NCI-H522	0.551
NCI-H838	0.48
NCI-H1651	0.659
NCI-H1734	0.487
NCI-H2009	0.365
EPLC-272H	0.331
PC-14	0.234
LCLC-97TM1	0.226
NCI-H596	1.07
EMC-BAC-2	0.981
NCI-H2087	0.311
HCC-44	0.987
NCI-H647	0.305
LK-2	0.196
NCI-H2126	0.549
NCI-H2342	0.789
SK-MES-1	0.351
HARA	0.61
COR-L23	0.446

Cell Line	relative viability
COR-L 105	0.662
LC-2-ad	0.838
LU99A	0.853
ChaGo-K-1	0.52
NCI-H2170	0.48
NCI-H3122	0.484
HCC-78	0.694
A549	0.276
SW 900	0.46
LXF-289	0.375
BEN	0.69
NCI-H1648	0.507
NCI-H2023	0.218
NCI-H520	0.454
SW 1573	0.462
NCI-H1650	0.389
SK-LU-1	0.679
NCI-H661	0.542

Same assay, conditions: first compound 0.1 µM

Cell Line	relative viability
NCI-H522	0.633
NCI-H838	0.428
NCI-H1651	0.608
NCI-H1734	0.506
NCI-H2009	0.328
EPLC-272H	0.383
PC-14	0.223
LCLC-97TM1	0.226
NCI-H596	1.01
EMC-BAC-2	0.941
NCI-H2087	0.21
HCC-44	0.971
NCI-H647	0.381
LK-2	0.262
NCI-H2126	0.587
NCI-H2342	0.699
HARA	0.469
COR-L23	0.433

Cell Line	relative viability
COR-L 105	0.589
LC-2-ad	0.815
LU99A	0.865
ChaGo-K-1	0.562
NCI-H2170	0.486
NCI-H3122	0.398
HCC-78	0.667
A549	0.228
SW 900	0.482
LXF-289	0.367
BEN	0.631
NCI-H1648	0.513
NCI-H2023	0.212
NCI-H520	0.46
SW 1573	0.446
NCI-H1650	0.416
SK-LU-1	0.593
NCI-H661	0.558

Same assay, conditions: first compound 0.3162 µM

Cell Line	relative viability
NCI-H522	0.535
NCI-H838	0.442
NCI-H1651	0.583
NCI-H1734	0.427
NCI-H2009	0.391
EPLC-272H	0.31
PC-14	0.142
LCLC-97TM1	0.211
NCI-H596	1.12
EMC-BAC-2	0.965
NCI-H2087	0.196
HCC-44	1.09
NCI-H647	0.357
LK-2	0.29
NCI-H2126	0.547
NCI-H2342	0.624
SK-MES-1	0.337
HARA	0.543

Cell Line	relative viability
COR-L23	0.445
COR-L 105	0.596
LC-2-ad	0.804
LU99A	0.849
ChaGo-K-1	0.522
NCI-H3122	0.434
HCC-78	0.702
A549	0.294
SW 900	0.443
LXF-289	0.367
BEN	0.796
NCI-H1648	0.397
NCI-H2023	0.221
NCI-H520	0.436
SW 1573	0.494
NCI-H1650	0.413
SK-LU-1	0.555
NCI-H661	0.398
